Measured values reported in patent US20170209447A1, “Use of PNP Inhibitor to Treat Relapse of Malignancy after Hematopoietic Stem Cell Transplant” (Nitor Therapeutics, priority 2014, published 2017).

Key:
B16 tumors = assay: PNPi as anticancer agent in mouse melanoma model; assay type: in vivo, C57BL/6 mice; conditions: cyclophosphamide 100 mg/kg IP single dose; FIG. 6
Method: Evaluation of PNPi as Anticancer Agent in Mouse Melanoma Model.
Treatment with the NTR001 was initiated on day 6 after injection of tumor cells. Tumor volume and survival were recorded every 3-4 days.

human TLR2 = biological target: T1, human TLR2 (Homo sapiens, UniProt O60603); assay: TLR ligand screening: NF-κB SEAP reporter in HEK293 cells expressing TLR2; assay type: cell-based; conditions: FIG. 2
T1 construct: expressed in transfected cells; host or cells: HEK293
Method: (§1) Toll-Like Receptor (TLR) Ligand Screening: In-vitro Activity of the PNPi, Guanosine and Inosine on Seven Different Human TLRs (TLR2, 3, 4, 5, 7, 8 and 9) as a Potential Agonist.
(§2) Method: TLR stimulation is tested by assessing NF-KB activation in HEK293 cells expressing a given TLR. The Secreted Embryonic Alkaline Phosphatase (SEAP) reporter is under the control of a promoter inducible by the transcription factor NF-κB.
(§3) This reporter gene allows the monitoring of signaling through the TLR, based on the activation of NF-κB. The compounds are evaluated at one concentration and compared to control ligands. This step is performed in triplicate.

human TLR4 = biological target: T2, human TLR4 (Homo sapiens, UniProt O00206); assay: TLR ligand screening: NF-κB SEAP reporter in HEK293 cells expressing TLR4; assay type: cell-based; conditions: FIG. 2
T2 construct: expressed in transfected cells; host or cells: HEK293
Method: as §1, §2, §3

tetanus toxoid vaccine = assay: PNPi as adjuvant in tetanus toxoid vaccine efficacy study (tetanus toxoid mouse model); assay type: in vivo, mice; conditions: compared to vehicle treated group
Method: This Example Evaluates PNPi as an Adjuvant in Tetanus Toxoid Vaccine Efficacy Study.
Method: Tetanus toxoid (TT) was used to vaccinate mice thrice, two weeks apart. Mice were treated by oral administration of compounds NTR001 and NTR002 and serum was collected at various time points for antibody titer and interferon-g analysis. Mice in Groups 2-6 (Table 2) are vaccinated subcutaneously with 0.1 ml tetanus toxoid vaccine on DAYS 0, 14 and 28. Mice in Group 1 (Table 1) received no vaccine. Antibody titers for DAYS 38 are determined by ELISA using tetanus toxoid coated microtiter plates and anti-mouse conjugate. Sera from DAY 30 are assayed by ELISA for interferon-g.

[1] = test system: L. monocytogenes (ATCC Strain35152, hemolytic substrain); conditions: 30 mg/kg PO or IP, or 2 mg/kg drinking water; 1×10^6 CFU i.v.; FIGS. 7 and 9
[2] = Guanosine 100 uM in combination with NTR001 (10 uM) and/or Inosine (100 uM)
[3] = one concentration: Guanosine 100 uM, NTR001 10 uM, Inosine 100 uM, HEK293, triplicate

T2 sequence (O00206 24-839): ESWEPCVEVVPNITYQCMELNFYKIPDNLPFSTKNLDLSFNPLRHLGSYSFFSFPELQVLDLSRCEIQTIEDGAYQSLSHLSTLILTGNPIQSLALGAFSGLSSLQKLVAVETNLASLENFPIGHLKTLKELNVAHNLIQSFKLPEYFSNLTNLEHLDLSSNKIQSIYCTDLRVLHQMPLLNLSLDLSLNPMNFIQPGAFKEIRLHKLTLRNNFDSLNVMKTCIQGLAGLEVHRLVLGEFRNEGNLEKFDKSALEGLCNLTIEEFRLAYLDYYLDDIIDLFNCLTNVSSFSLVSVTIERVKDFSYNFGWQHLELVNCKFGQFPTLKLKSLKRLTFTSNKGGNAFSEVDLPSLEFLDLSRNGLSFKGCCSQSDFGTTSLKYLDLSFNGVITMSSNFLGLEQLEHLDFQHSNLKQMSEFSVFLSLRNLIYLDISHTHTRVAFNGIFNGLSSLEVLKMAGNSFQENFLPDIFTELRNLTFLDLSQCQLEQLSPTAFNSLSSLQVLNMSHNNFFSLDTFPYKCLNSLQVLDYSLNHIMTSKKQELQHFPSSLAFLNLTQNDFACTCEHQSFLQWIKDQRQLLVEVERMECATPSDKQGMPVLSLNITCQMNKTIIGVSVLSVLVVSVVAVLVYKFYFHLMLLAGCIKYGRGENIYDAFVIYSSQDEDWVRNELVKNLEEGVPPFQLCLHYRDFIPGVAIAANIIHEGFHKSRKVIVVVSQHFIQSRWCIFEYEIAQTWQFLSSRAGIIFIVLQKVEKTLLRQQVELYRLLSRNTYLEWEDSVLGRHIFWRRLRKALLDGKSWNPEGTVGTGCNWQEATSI
T2 sequence (Q9Y6Y9 17-160 partner limits assumed): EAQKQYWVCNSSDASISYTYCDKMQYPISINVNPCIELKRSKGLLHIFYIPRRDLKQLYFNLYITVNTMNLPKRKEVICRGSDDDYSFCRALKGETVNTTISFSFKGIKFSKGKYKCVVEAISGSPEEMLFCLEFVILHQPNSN
T1 sequence (O60603 21-784): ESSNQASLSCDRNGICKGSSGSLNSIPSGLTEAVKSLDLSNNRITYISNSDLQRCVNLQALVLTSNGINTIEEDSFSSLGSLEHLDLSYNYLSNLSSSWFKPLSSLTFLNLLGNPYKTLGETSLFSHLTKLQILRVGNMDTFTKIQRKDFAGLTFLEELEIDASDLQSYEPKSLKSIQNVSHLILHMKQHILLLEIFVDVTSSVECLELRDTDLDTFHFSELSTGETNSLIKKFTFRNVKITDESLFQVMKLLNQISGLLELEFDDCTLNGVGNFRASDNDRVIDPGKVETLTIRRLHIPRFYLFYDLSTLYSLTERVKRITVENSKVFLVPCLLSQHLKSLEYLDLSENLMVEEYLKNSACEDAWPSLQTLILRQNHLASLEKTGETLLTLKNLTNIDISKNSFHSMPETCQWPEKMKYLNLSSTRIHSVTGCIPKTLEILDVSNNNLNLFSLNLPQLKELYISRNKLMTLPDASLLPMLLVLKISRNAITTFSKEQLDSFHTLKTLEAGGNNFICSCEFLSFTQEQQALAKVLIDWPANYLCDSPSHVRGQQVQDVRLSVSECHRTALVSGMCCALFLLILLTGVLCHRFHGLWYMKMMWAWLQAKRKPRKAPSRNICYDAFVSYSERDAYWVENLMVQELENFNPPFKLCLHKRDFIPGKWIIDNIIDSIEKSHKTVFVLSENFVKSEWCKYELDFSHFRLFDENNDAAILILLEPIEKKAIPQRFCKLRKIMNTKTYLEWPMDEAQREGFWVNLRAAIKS

O=P1(N(CCCl)CCCl)NCCCO1 (centres unmarked) [Cyclcophosphamide, cyclophosphamide, reference compound]
survival (B16 tumors): 30%

Nc1nc2c(ncn2[C@@H]2O[C@H](CO)[C@@H](O)[C@H]2O)c(=O)[nH]1 [Guanosine, guanosine]
stimulatory effect on human TLR2 (NF-κB activation), combination (human TLR2; [2]): significant stimulatory effect | stimulatory effect on human TLR2 (NF-κB activation) (human TLR2; [3]): significant stimulatory effect | stimulatory effect on human TLR4 (NF-κB activation), combination (human TLR4; [2]): significant stimulatory effect | stimulatory effect on human TLR4 (NF-κB activation) (human TLR4; [3]): significant stimulatory effect

O=c1[nH]cnc2c(CN3C[C@H](CO)[C@@H](O)C3)c[nH]c12 [NTR002, 1,5-dihydro-7-[[(3R,4R)-3-hydroxy-4-(hydroxymethyl)pyrrolidin-1-yl]methyl]-4H-pyrrolo[3,2-d]pyrimidin-4-one]
serum interferon-g levels (tetanus toxoid vaccine; day 30, ELISA, high dose group 60 mg/kg p.o., FIG. 4): elevated | serum tetanus toxoid antibody titers (tetanus toxoid vaccine; day 38, ELISA, p.o. 30 mg/kg (6 days of treatment) and 60 mg/kg (3 days of treatment), FIG. 3): significantly elevated | weight loss [1]: significant decrease
